Results reported in patent US20220347175A1, “PYRIDAZINONE DERIVATIVE” (Sumitomo Dainippon Pharma Co., Ltd., priority 2018, published 2022).

Assays:
human Nav1.1 = molecular target: T1, human Nav1.1 (Homo sapiens, UniProt P35498); assay: Amplification of Nav1.1-derived voltage-dependent sodium current (Nav1.1 current), cell line stably expressing human Nav1.1, automated patch clamp; type: cell-based
T1 construct: host or cells: HEK293
Summary of the method: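 Automated whole-cell voltage-clamp recordings used HEK293 cells stably expressing human Nav1.1, keeping only cells with >500 pA current, with currents evoked by ramp voltage. Compounds were applied in extracellular fluid with 1% DMSO, and amplification (%) was computed from peak current or AUC after versus before addition.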

human Nav1.5 = molecular target: T2, human Nav1.5 (Homo sapiens, UniProt Q14524); assay: Amplification of Nav1.5-derived voltage-dependent sodium current (Nav1.5 current), cell line stably expressing human Nav1.5, automated patch clamp; type: cell-based
T2 construct: expressed in transfected cells; host or cells: CHO-K1 (T-REx System, ThermoFisher Scientific)
T2 sequence (Q14524 1-2015 isoform Q14524-2): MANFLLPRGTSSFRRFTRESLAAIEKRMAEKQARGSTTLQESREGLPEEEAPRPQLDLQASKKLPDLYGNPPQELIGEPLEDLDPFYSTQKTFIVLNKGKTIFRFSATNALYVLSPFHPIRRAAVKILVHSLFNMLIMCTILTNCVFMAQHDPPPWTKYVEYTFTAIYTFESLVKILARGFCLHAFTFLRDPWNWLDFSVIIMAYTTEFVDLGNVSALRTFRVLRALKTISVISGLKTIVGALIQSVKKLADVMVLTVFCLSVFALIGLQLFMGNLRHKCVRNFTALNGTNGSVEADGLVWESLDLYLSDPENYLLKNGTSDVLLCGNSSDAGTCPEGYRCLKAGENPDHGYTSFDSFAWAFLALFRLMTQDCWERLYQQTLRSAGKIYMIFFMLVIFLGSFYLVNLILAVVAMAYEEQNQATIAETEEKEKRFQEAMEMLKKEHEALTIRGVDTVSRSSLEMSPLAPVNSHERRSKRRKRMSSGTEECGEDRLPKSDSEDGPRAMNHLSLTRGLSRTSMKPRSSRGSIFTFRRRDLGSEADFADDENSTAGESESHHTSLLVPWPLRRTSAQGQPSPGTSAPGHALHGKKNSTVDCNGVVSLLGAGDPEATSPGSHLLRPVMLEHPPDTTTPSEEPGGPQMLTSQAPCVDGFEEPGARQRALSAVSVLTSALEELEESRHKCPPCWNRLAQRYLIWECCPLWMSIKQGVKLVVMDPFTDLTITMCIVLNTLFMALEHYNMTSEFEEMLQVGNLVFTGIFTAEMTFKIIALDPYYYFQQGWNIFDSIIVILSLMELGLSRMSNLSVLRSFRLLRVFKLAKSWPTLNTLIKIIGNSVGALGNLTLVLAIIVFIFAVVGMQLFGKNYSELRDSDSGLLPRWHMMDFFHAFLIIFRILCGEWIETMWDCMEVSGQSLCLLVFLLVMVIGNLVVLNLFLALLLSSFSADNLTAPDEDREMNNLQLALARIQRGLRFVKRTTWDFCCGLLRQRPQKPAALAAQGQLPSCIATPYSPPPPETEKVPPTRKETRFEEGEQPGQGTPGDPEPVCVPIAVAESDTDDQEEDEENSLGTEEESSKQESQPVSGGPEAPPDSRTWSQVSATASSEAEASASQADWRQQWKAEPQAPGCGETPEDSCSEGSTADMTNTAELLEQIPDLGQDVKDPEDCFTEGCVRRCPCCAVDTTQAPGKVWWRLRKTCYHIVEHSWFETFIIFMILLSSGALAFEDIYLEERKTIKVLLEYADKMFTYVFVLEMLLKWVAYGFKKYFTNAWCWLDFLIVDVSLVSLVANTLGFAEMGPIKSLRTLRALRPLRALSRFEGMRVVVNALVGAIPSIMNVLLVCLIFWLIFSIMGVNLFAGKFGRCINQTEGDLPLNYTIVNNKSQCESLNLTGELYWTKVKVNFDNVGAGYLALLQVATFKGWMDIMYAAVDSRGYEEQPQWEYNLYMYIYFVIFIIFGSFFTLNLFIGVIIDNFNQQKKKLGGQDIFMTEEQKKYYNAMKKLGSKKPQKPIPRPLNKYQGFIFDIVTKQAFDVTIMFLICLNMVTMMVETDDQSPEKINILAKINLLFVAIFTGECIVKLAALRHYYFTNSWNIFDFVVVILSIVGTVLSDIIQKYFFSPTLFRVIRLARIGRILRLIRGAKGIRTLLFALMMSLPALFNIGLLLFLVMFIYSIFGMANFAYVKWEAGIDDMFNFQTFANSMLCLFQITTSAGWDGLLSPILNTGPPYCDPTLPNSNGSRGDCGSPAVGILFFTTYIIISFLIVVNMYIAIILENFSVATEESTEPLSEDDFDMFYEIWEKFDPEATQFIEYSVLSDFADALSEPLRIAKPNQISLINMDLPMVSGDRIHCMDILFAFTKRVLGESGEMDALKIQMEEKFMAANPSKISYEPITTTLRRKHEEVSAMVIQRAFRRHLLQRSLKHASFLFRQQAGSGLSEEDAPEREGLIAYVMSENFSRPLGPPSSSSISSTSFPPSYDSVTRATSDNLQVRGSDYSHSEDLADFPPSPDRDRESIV

[1] = 10 μmol/L compound, change of the area under the curve of Nav1.1 current (Test Result 1)
[2] = 10 μmol/L compound, change of the area under the curve of Nav1.5 current (Test Result 1)
[3] = compound 3 μmol/L, HEK293 stably expressing human Nav1.1
[4] = compound 3 μmol/L, CHO-K1 stably expressing human Nav1.5
[5] = compound 1 μmol/L, HEK293 stably expressing human Nav1.1, read-out: Nav1.1 current amplification rate (%)
[6] = compound 1 μmol/L, CHO-K1 stably expressing human Nav1.5, read-out: Nav1.5 current amplification rate (%)
[7] = 10 μmol/L compound, change of the area under the curve of Nav1.1 current (Test Result 1), read-out: Nav1.1 current amplification rate (%)
[8] = 10 μmol/L compound, change of the area under the curve of Nav1.5 current (Test Result 1), read-out: Nav1.5 current amplification rate (%)

In the case of `CC1CCN(c2ccc(=O)n(CC(=O)Nc3cccc(-c4cnco4)c3)n2)CC1` [Example 77], the “Nav1.1 current amplification rate (%)” value (human Nav1.1; [1]) is reported as 93% and the “Nav1.5 current amplification rate (%)” value (human Nav1.5; [2]) is reported as 28%.
With `CC1CC=C(c2ccc(=O)n(CC(=O)Nc3cccc(N4CCOCC4)c3F)n2)CC1` (racemic) [Example 322] the “Nav1.1 current amplification rate (%)” value (human Nav1.1; [3]) was 115% and the “Nav1.5 current amplification rate (%)” value (human Nav1.5; [4]) was 18%.
For `COc1cc(=O)n(CC(=O)Nc2ccc3ocnc3c2)nc1C1=CCC(C)(C)CC1` [Example 451], the “Nav1.1 current amplification rate (%)” value (human Nav1.1; [1]) was 365% and the “Nav1.5 current amplification rate (%)” value (human Nav1.5; [2]) was 30%.
With `CC1CC=C(c2ccc(=O)n(CC(=O)N3CCc4c(C5CN(C6CCOC6)C5)cccc43)n2)CC1` (racemic) [Example 305] the “Nav1.1 current amplification rate (%)” value (human Nav1.1; [3]) was 314% and the “Nav1.5 current amplification rate (%)” value (human Nav1.5; [4]) was 117%.
For `CC1CC=C(c2ccc(=O)n(CC(=O)N3CCc4c(C5CN(C6COC6)C5)cccc43)n2)CC1` (racemic) [Example 301], the “Nav1.1 current amplification rate (%)” value (human Nav1.1; [3]) was 410% and the “Nav1.5 current amplification rate (%)” value (human Nav1.5; [4]) was 55%.
`CC1CC=C(c2ccc(=O)n(CC(=O)N3CCc4c(CN5CC6CC5CO6)cccc43)n2)CC1` (mixture of isomers) [Example 278] was tested, and the “Nav1.1 current amplification rate (%)” value (human Nav1.1; compound 1 μmol/L, HEK293 stably expressing human Nav1.1) was 204% and the “Nav1.5 current amplification rate (%)” value (human Nav1.5; compound 1 μmol/L, CHO-K1 stably expressing human Nav1.5) was 27%.
`CC1(C)CC=C(c2ccc(=O)n(CC(=O)Nc3ccc4ncnn4c3)n2)CC1` [Example 428, 2-[3-(4,4-dimethylcyclohex-1-en-1-yl)-6-oxopyridazin-1(6H)-yl]-N-([1,2,4]triazolo[1,5-a]pyridin-6-yl)acetamide] showed an activation at 1 µM (human Nav1.1; [5]) of 109% and an activation at 1 µM (human Nav1.5; [6]) of 23%.
In the case of `CC1CC=C(c2ccc(=O)n(CC(=O)Nc3ccc4oc(C(C)(C)O)nc4c3)n2)CC1` (racemic) [Example 327], the “Nav1.1 current amplification rate (%)” value (human Nav1.1; [3]) is reported as 124% and the “Nav1.5 current amplification rate (%)” value (human Nav1.5; [4]) is reported as 9%.
With `COc1ccc(N2CCN(C(=O)Cn3nc(C4=CCC(C)CC4)ccc3=O)CC2)cn1` (stereo not drawn) [Example 407] the “Nav1.1 current amplification rate (%)” value (human Nav1.1; [3]) was 113% and the “Nav1.5 current amplification rate (%)” value (human Nav1.5; [4]) was 6%.
With `COc1ccc2c(c1)CCN2C(=O)Cn1nc(C2=CCC(C)(C)CC2)ccc1=O` [Example 430] the “Nav1.1 current amplification rate (%)” value (human Nav1.1; [1]) was 28% and the “Nav1.5 current amplification rate (%)” value (human Nav1.5; [2]) was 22%.
With `C[C@@H]1CC=C(c2ccc(=O)n(CC(=O)Nc3ccc4ncnn4c3)n2)CC1` [Example 539, 2-{3-[(4S)-4-methylcyclohex-1-en-1-yl]-6-oxopyridazin-1(6H)-yl}-N-([1,2,4]triazolo[1,5-a]pyridin-6-yl)acetamide] the activation at 1 µM (human Nav1.1; [5]) was 80% and the activation at 1 µM (human Nav1.5; [6]) was 11%.
With `CC1(C)CC=C(c2ccc(=O)n(CC(=O)N3CCc4c(C5CN(C(=O)CO)C5)cccc43)n2)CC1` [Example 437] the “Nav1.1 current amplification rate (%)” value (human Nav1.1; [3]) was 582% and the “Nav1.5 current amplification rate (%)” value (human Nav1.5; [4]) was 194%.
`Cc1cc(N2CCC3(CCCC3)C2)nn(CC(=O)Nc2ccc3ocnc3c2)c1=O` [Example 193] gave an activation at 10 µM (human Nav1.1; [7]) of 219% and an activation at 10 µM (human Nav1.5; [8]) of 0%.
For `CC1CC=C(c2ccc(=O)n(CC(=O)N3CCc4c(-c5ccnnc5)cccc43)n2)CC1` (racemic) [Example 253], the “Nav1.1 current amplification rate (%)” value (human Nav1.1; [3]) was 455% and the “Nav1.5 current amplification rate (%)” value (human Nav1.5; [4]) was 85%.
In the case of `CC1CCN(c2ccc(=O)n(CC(=O)Nc3ccc4oc(=O)n(C)c4c3)n2)CC1` [Example 81], the “Nav1.1 current amplification rate (%)” value (human Nav1.1; [1]) is reported as 69% and the “Nav1.5 current amplification rate (%)” value (human Nav1.5; [2]) is reported as 21%.
`CC1CC=C(c2ccc(=O)n(CC(=O)N3CCc4c(C5CN(CCO)C5)cccc43)n2)CC1` (racemic) [Example 303] was tested, and the “Nav1.1 current amplification rate (%)” value (human Nav1.1; [3]) was 67% and the “Nav1.5 current amplification rate (%)” value (human Nav1.5; [4]) was 11%.
For `CC1CCN(c2ccc(=O)n(CC(=O)N3CCc4cc(N5CCOCC5)ccc43)n2)CC1` [Example 164], the activation at 10 µM (human Nav1.1; [7]) was 187% and the activation at 10 µM (human Nav1.5; [8]) was 34%.
With `CCN1CC(c2cccc3c2CCN3C(=O)Cn2nc(C3=CCC(C)CC3)ccc2=O)C1` (racemic) [Example 302] the “Nav1.1 current amplification rate (%)” value (human Nav1.1; [3]) was 104% and the “Nav1.5 current amplification rate (%)” value (human Nav1.5; [4]) was 79%.
Work on `O=C(Cn1nc(N2CCC3(CCC3)CC2)ccc1=O)Nc1cccc(-n2ccnc2)c1` [Example 125] yielded an activation at 10 µM (human Nav1.1; [7]) of 220% and an activation at 10 µM (human Nav1.5; [8]) of 34%.
For `CC1CC=C(c2ccc(=O)n(CC(=O)N3CCc4c(C5CNC5)cccc43)n2)CC1` (racemic) [Example 299], the “Nav1.1 current amplification rate (%)” value (human Nav1.1; [3]) was 6% and the “Nav1.5 current amplification rate (%)” value (human Nav1.5; [4]) was 10%.
Work on `COc1cc(N2CCC(C)(C)CC2)nn(CC(=O)Nc2ccn3ccnc3c2)c1=O` [Example 212] yielded an activation at 10 µM (human Nav1.1; [7]) of 74% and an activation at 10 µM (human Nav1.5; [8]) of 3%.
With `CC1CC=C(c2ccc(=O)n(CC(=O)N3CCc4c(-c5ccn(C)n5)cccc43)n2)CC1` (racemic) [Example 252] the “Nav1.1 current amplification rate (%)” value (human Nav1.1; [3]) was 254% and the “Nav1.5 current amplification rate (%)” value (human Nav1.5; [4]) was 31%.
`COc1cnc(C2=CCN(C(=O)Cn3nc(C4=CCC(C)CC4)ccc3=O)CC2)cn1` (racemic) [Example 399] was tested, and the “Nav1.1 current amplification rate (%)” value (human Nav1.1; [1]) was 102% and the “Nav1.5 current amplification rate (%)” value (human Nav1.5; [2]) was 11%.
`COc1cc(=O)n(CC(=O)Nc2ccc3oc(C)nc3c2)nc1C1=CCC(C)(C)CC1` [Example 492] gave an activation at 3 µM (human Nav1.1; compound 3 μmol/L, HEK293 stably expressing human Nav1.1, read-out: Nav1.1 current amplification rate (%)) of 222% and an activation at 3 µM (human Nav1.5; compound 3 μmol/L, CHO-K1 stably expressing human Nav1.5, read-out: Nav1.5 current amplification rate (%)) of 16%.
In the case of `CC1CCN(c2ccc(=O)n(CC(=O)Nc3ccc4scnc4c3)n2)CC1` [Example 87], the “Nav1.1 current amplification rate (%)” value (human Nav1.1; [1]) is reported as 255% and the “Nav1.5 current amplification rate (%)” value (human Nav1.5; [2]) is reported as 22%.
For `Cc1cc2cc(NC(=O)Cn3nc(N4CCC(C)CC4)ccc3=O)ccc2o1` [Example 175], the activation at 10 µM (human Nav1.1; [7]) was 44% and the activation at 10 µM (human Nav1.5; [8]) was 1%.
With `Cc1cc(=O)n(CC(=O)Nc2ccc3c(c2)OCC3)nc1N1CCC2(CCC2)C1` [Example 203] the activation at 10 µM (human Nav1.1; [7]) was 267% and the activation at 10 µM (human Nav1.5; [8]) was 12%.
With `CC1CC=C(c2ccc(=O)n(CC(=O)N3CCc4c(C5CCN(C)C5)cccc43)n2)CC1` (mixture of isomers) [Example 269] the “Nav1.1 current amplification rate (%)” value (human Nav1.1; [3]) was 127% and the “Nav1.5 current amplification rate (%)” value (human Nav1.5; [4]) was 266%.
Compound `Cc1cc(NC(=O)Cn2nc(N3CCC4(CCCC4)C3)cc(C)c2=O)cc(C)n1` [Example 198] has an activation at 10 µM (human Nav1.1; [7]) of 36% and an activation at 10 µM (human Nav1.5; [8]) of -9%.
With `CC1CC=C(c2ccc(=O)n(CC(=O)N3CCN(c4cncc(C(F)(F)F)c4)CC3)n2)CC1` (racemic) [Example 401] the “Nav1.1 current amplification rate (%)” value (human Nav1.1; [1]) was 286% and the “Nav1.5 current amplification rate (%)” value (human Nav1.5; [2]) was 5%.
Compound `O=C(Cn1nc(N2CCC3(CCC3)CC2)ccc1=O)Nc1ccc2ocnc2c1` [Example 126] has an activation at 10 µM (human Nav1.1; [7]) of 167% and an activation at 10 µM (human Nav1.5; [8]) of 13%.
For `Cc1cc(=O)n(CC(=O)Nc2ccn3ncnc3c2)nc1C1=CCC(C)(C)CC1` [Example 503], the activation at 1 µM (human Nav1.1; [5]) was 58% and the activation at 1 µM (human Nav1.5; [6]) was 10%.
For `CC1CCN(c2ccc(=O)n(CC(=O)Nc3ccc4c(c3)NC(=O)CC4)n2)CC1` [Example 181], the activation at 10 µM (human Nav1.1; [7]) was 118% and the activation at 10 µM (human Nav1.5; [8]) was 4%.
With `Cc1nc2cc(NC(=O)Cn3nc(N4CCC(C)CC4)ccc3=O)ccc2o1` [Example 69] the “Nav1.1 current amplification rate (%)” value (human Nav1.1; [1]) was 137% and the “Nav1.5 current amplification rate (%)” value (human Nav1.5; [2]) was 0%.
`CC1CCN(c2ccc(=O)n(CC(=O)Nc3ccn4ccnc4c3)n2)CC1` [Example 72] was tested, and the “Nav1.1 current amplification rate (%)” value (human Nav1.1; [1]) was 119% and the “Nav1.5 current amplification rate (%)” value (human Nav1.5; [2]) was 3%.
With `O=C(Cn1nc(-c2cc(Cl)cs2)ccc1=O)Nc1ccc2ocnc2c1` [Example 454] the “Nav1.1 current amplification rate (%)” value (human Nav1.1; [1]) was 157% and the “Nav1.5 current amplification rate (%)” value (human Nav1.5; [2]) was 35%.
`CC1CCC(c2ccc(=O)n(CC(=O)N3CCc4c(N5CCOCC5)cccc43)n2)CC1` (single isomer, unassigned) [Example 535] was tested, and the “Nav1.1 current amplification rate (%)” value (human Nav1.1; [1]) was 277% and the “Nav1.5 current amplification rate (%)” value (human Nav1.5; [2]) was 10%.
Compound `O=C(Cn1nc(C2=CCCCC2)ccc1=O)N1CCc2c(-c3cncnc3)cccc21` [Example 522] has an activation at 1 µM (human Nav1.1; [5]) of 367% and an activation at 1 µM (human Nav1.5; [6]) of 25%.
With `COc1cncc(C2=CCN(C(=O)Cn3nc(C4=CCC(C)CC4)ccc3=O)CC2)c1` (stereo not drawn) [Example 403] the “Nav1.1 current amplification rate (%)” value (human Nav1.1; [1]) was 270% and the “Nav1.5 current amplification rate (%)” value (human Nav1.5; [2]) was 12%.
